# Measurements reported in ChEMBL document CHEMBL1201862, “PubChem BioAssay data set” (2004).
#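 Interpolation was linear, between the two tested concentrations surrounding the appropriate level; five concentrations were tested over 48 hours in 96-well plates. The concentration for 50% growth inhibition is given as GI50.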 Activity calls are given as the source filed them. Rule as the data show it: active = GI50 up to about 1.1 µM and inactive = higher.
# Tests used:
# Assay in all cases: NCI tumour cell line growth inhibition, 48 h
# 786-0 = test system: 786-0
# A549 = test system: A549
# ACHN = test system: ACHN
# DU-145 = test system: DU-145
# EKVX = test system: EKVX
# HCT-116 = test system: HCT-116
# HCT-15 = test system: HCT-15
# IGROV-1 = test system: IGROV-1
# MCF7 = test system: MCF7
# MDA-MB-435 = test system: MDA-MB-435
# MDA-N = test system: MDA-N
# NCI-H226 = test system: NCI-H226
# NCI-H23 = test system: NCI-H23
# NCI-H522 = test system: NCI-H522
# OVCAR-8 = test system: OVCAR-8
# SK-MEL-28 = test system: SK-MEL-28
# SN12C = test system: SN12C
# SNB-75 = test system: SNB-75
# U-251 = test system: U-251
# UACC-62 = test system: UACC-62
Compound,GI50 (786-0),GI50 (A549),GI50 (ACHN),GI50 (DU-145),GI50 (EKVX),GI50 (HCT-116),GI50 (HCT-15),GI50 (IGROV-1),GI50 (MCF7),GI50 (MDA-MB-435),GI50 (MDA-N),GI50 (NCI-H226),GI50 (NCI-H23),GI50 (NCI-H522),GI50 (OVCAR-8),GI50 (SK-MEL-28),GI50 (SN12C),GI50 (SNB-75),GI50 (U-251),GI50 (UACC-62)
CN1CCN(CCCCN2c3ccccc3Sc3ccc(C(=O)c4ccccc4)cc32)CC1,1.58 µM (inactive),1.95 µM (inactive),1.67 µM (inactive),2.29 µM (inactive),2.36 µM (inactive),1.82 µM (inactive),1.67 µM,1.72 µM (inactive),1.91 µM (inactive),1.73 µM (inactive),1.55 µM (inactive),1.8 µM (inactive),1.85 µM (inactive),1.78 µM (inactive),1.5 µM (inactive),1.49 µM (inactive),1.71 µM (inactive),1.26 µM (inactive),1.69 µM (inactive),1.26 µM (inactive)
COc1ccc(/C=C/C(=O)c2cc(OC)cc(OC)c2)cc1,1.16 µM (inactive),2.13 µM (inactive),4.7 µM (inactive),3.24 µM (inactive),6.52 µM (inactive),1.22 µM (inactive),0.543 µM,4.57 µM (inactive),0.219 µM (active),1.54 µM (inactive),1.94 µM (inactive),10.2 µM (inactive),2.58 µM (inactive),2.22 µM (inactive),3.39 µM (inactive),5.97 µM (inactive),3.56 µM (inactive),2.64 µM (inactive),1.24 µM (inactive),4.14 µM (inactive)
O=C1/C(=C\c2ccc(-c3ccc(Cl)cc3Cl)o2)SC2NC(COc3ccc(Cl)cc3)=NN12 (stereo not given),51.2 µM (inactive),69.7 µM (inactive),53.7 µM (inactive),65.6 µM (inactive),32.4 µM (inactive),48.4 µM (inactive),34.9 µM,29.9 µM (inactive),33.4 µM (inactive),38.7 µM (inactive),44.2 µM (inactive),20.2 µM (inactive),53.2 µM (inactive),55 µM (inactive),38.3 µM (inactive),> 100 µM (inactive),72.1 µM (inactive),> 100 µM (inactive),21.4 µM (inactive),34 µM (inactive)
CCC(=O)N1C(=O)C(CC)(CC)C(=O)N1C(=O)CC,> 100 µM (inactive),> 100 µM (inactive),> 100 µM (inactive),> 100 µM (inactive),> 100 µM (inactive),> 100 µM (inactive),> 100 µM,> 100 µM (inactive),> 100 µM (inactive),> 100 µM (inactive),> 100 µM (inactive),> 100 µM (inactive),> 100 µM (inactive),> 100 µM (inactive),> 100 µM (inactive),> 100 µM (inactive),> 100 µM (inactive),> 100 µM (inactive),> 100 µM (inactive),> 100 µM (inactive)
COc1c(C)c(OC)c2c(c1O)[C@@H]1[C@@H]3Cc4c(OC)c(C)c(OC)c(O)c4[C@H](CNC(=O)c4cnc5ccccc5n4)N3[C@@H](C#N)[C@H](C2)N1C,0.00412 µM (active),0.0292 µM (active),0.00348 µM (active),0.0026 µM (active),0.00149 µM (active),0.00222 µM (active),0.00826 µM,0.0014 µM (active),0.00135 µM (active),0.00255 µM (active),0.00138 µM (active),0.00246 µM (active),0.00277 µM (active),0.000399 µM (active),0.00283 µM (active),0.0029 µM (active),0.00329 µM (active),0.00266 µM (active),0.00135 µM (active),0.00123 µM (active)
CO/N=[N+](\[O-])NC(C)C,> 100 µM (inactive),> 100 µM (inactive),> 100 µM (inactive),> 100 µM (inactive),> 100 µM (inactive),> 100 µM (inactive),> 100 µM,> 100 µM (inactive),> 100 µM (inactive),> 100 µM (inactive),> 100 µM (inactive),> 100 µM (inactive),> 100 µM (inactive),> 100 µM (inactive),> 100 µM (inactive),> 100 µM (inactive),> 100 µM (inactive),> 100 µM (inactive),> 100 µM (inactive),> 100 µM (inactive)
CC(=O)O[C@H]1C[C@@H](O[C@H]2[C@@H](O)C[C@H](O[C@H]3[C@@H](O)C[C@H](O[C@H]4CC[C@@]5(C)[C@H](CC[C@@H]6[C@@H]5C[C@@H](O)[C@]5(C)[C@@H](C7=CC(=O)OC7)CC[C@]65O)C4)O[C@@H]3C)O[C@@H]2C)O[C@H](C)[C@H]1O.CC(=O)O[C@H]1[C@@H](O)C[C@@H](O[C@H]2[C@@H](O)C[C@H](O[C@H]3[C@@H](O)C[C@H](O[C@H]4CC[C@@]5(C)[C@H](CC[C@@H]6[C@@H]5C[C@@H](O)[C@]5(C)[C@@H](C7=CC(=O)OC7)CC[C@]65O)C4)O[C@@H]3C)O[C@@H]2C)O[C@@H]1C,0.0223 µM (active),0.0119 µM (active),0.0136 µM (active),0.0192 µM (active),0.0175 µM (active),0.0262 µM (active),0.0308 µM,0.0354 µM (active),0.0415 µM (active),0.0443 µM (active),0.0402 µM (active),0.0508 µM (active),0.0114 µM (active),< 0.01 µM (active),0.0378 µM (active),0.129 µM (active),0.0423 µM (active),0.0483 µM (active),0.0302 µM (active),0.0387 µM (active)
CCOc1ccc(Nc2nc(N)nc(N)c2N=O)cc1,> 100 µM (inactive),> 100 µM (inactive),42.1 µM (inactive),38 µM (inactive),48.4 µM (inactive),> 100 µM (inactive),37.7 µM,7.69 µM (inactive),38.4 µM (inactive),52.4 µM (inactive),62.1 µM (inactive),39.6 µM (inactive),59.7 µM (inactive),55.5 µM (inactive),51.1 µM (inactive),66.5 µM (inactive),56.6 µM (inactive),28.1 µM (inactive),> 100 µM (inactive),44.1 µM (inactive)
COc1ccc(-c2cc(C3CC3)nc(SCC(=O)O)c2C#N)cc1,> 100 µM (inactive),44 µM (inactive),> 100 µM (inactive),85.3 µM (inactive),> 100 µM (inactive),> 100 µM (inactive),65.8 µM,> 100 µM (inactive),94.4 µM (inactive),> 100 µM (inactive),> 100 µM (inactive),82.6 µM (inactive),> 100 µM (inactive),25.1 µM (inactive),> 100 µM (inactive),> 100 µM (inactive),> 100 µM (inactive),> 100 µM (inactive),58.9 µM (inactive),> 100 µM (inactive)
Cc1ccc(C(=O)C#Cc2cn(C3CC(O)C(CO)O3)c(=O)[nH]c2=O)cc1 (stereo not given),> 100 µM (inactive),> 100 µM (inactive),> 100 µM (inactive),> 100 µM (inactive),> 100 µM (inactive),62.2 µM (inactive),> 100 µM,> 100 µM (inactive),47.6 µM (inactive),> 100 µM (inactive),> 100 µM (inactive),> 100 µM (inactive),> 100 µM (inactive),11.5 µM (inactive),> 100 µM (inactive),> 100 µM (inactive),> 100 µM (inactive),> 100 µM (inactive),> 100 µM (inactive),> 100 µM (inactive)
COc1ccc(NC(=O)CC(=O)N2N=C(C)C(/N=N\c3ccc(S(=O)(=O)c4ccc(/N=N/C5C(=O)N(C(=O)CC(=O)Nc6ccc(OC)cc6)N=C5C)cc4)cc3)C2=O)cc1 (stereo not given),> 100 µM (inactive),> 100 µM (inactive),> 100 µM (inactive),> 100 µM (inactive),> 100 µM (inactive),> 100 µM (inactive),> 100 µM,55.1 µM (inactive),> 100 µM (inactive),> 100 µM (inactive),> 100 µM (inactive),> 100 µM (inactive),> 100 µM (inactive),> 100 µM (inactive),> 100 µM (inactive),> 100 µM (inactive),> 100 µM (inactive),24.9 µM (inactive),> 100 µM (inactive),> 100 µM (inactive)
C/C=C1/CN2CCC34c5ccccc5N(C)C23C2CC1C4(C(=O)OC)C(O)O2 (stereo not given),> 100 µM (inactive),> 100 µM (inactive),> 100 µM (inactive),> 100 µM (inactive),> 100 µM (inactive),> 100 µM (inactive),> 100 µM,> 100 µM (inactive),> 100 µM (inactive),> 100 µM (inactive),> 100 µM (inactive),> 100 µM (inactive),> 100 µM (inactive),> 100 µM (inactive),> 100 µM (inactive),> 100 µM (inactive),> 100 µM (inactive),> 100 µM (inactive),> 100 µM (inactive),> 100 µM (inactive)
CC(C)/C=C1\CCC(CN(C)C)C1=O (stereo not given),0.632 µM (active),8.57 µM (inactive),5.82 µM (inactive),1.81 µM (inactive),7.1 µM (inactive),0.871 µM (active),2.13 µM,7.05 µM (inactive),0.313 µM (active),1.6 µM (inactive),2.92 µM (inactive),26.9 µM (inactive),5.56 µM (inactive),0.082 µM (active),2 µM (inactive),2.21 µM (inactive),2.21 µM (inactive),3.48 µM (inactive),18.3 µM (inactive),16.8 µM (inactive)
